One test has as its target T1, SHP2 (Homo sapiens, UniProt Q06124).
T1 construct: gene PTPN11
T1 sequence (Q06124 1-526): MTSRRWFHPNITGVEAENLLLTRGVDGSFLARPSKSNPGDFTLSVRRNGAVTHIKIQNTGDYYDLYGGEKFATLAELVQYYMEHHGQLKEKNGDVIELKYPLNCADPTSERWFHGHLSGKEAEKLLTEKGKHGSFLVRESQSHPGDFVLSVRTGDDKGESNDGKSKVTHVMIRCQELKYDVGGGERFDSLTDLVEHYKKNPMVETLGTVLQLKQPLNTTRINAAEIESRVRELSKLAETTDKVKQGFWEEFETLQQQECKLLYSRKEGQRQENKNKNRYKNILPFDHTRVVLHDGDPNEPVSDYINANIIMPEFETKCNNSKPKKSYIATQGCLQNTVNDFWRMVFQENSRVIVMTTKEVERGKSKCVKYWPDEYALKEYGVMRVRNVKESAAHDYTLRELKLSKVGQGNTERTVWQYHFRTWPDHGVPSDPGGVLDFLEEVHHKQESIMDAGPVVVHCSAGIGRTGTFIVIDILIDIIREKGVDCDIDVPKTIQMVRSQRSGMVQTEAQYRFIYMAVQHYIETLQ
In words: DiFMUP fluorogenic phosphatase assay, dose-response and Hill plot. The format is biochemical.

For another test, the target named is T2, PTPN13 (PTP-BAS) (Homo sapiens, UniProt Q12923).
T2 construct: 2095-2490
T2 sequence (Q12923 whole entry): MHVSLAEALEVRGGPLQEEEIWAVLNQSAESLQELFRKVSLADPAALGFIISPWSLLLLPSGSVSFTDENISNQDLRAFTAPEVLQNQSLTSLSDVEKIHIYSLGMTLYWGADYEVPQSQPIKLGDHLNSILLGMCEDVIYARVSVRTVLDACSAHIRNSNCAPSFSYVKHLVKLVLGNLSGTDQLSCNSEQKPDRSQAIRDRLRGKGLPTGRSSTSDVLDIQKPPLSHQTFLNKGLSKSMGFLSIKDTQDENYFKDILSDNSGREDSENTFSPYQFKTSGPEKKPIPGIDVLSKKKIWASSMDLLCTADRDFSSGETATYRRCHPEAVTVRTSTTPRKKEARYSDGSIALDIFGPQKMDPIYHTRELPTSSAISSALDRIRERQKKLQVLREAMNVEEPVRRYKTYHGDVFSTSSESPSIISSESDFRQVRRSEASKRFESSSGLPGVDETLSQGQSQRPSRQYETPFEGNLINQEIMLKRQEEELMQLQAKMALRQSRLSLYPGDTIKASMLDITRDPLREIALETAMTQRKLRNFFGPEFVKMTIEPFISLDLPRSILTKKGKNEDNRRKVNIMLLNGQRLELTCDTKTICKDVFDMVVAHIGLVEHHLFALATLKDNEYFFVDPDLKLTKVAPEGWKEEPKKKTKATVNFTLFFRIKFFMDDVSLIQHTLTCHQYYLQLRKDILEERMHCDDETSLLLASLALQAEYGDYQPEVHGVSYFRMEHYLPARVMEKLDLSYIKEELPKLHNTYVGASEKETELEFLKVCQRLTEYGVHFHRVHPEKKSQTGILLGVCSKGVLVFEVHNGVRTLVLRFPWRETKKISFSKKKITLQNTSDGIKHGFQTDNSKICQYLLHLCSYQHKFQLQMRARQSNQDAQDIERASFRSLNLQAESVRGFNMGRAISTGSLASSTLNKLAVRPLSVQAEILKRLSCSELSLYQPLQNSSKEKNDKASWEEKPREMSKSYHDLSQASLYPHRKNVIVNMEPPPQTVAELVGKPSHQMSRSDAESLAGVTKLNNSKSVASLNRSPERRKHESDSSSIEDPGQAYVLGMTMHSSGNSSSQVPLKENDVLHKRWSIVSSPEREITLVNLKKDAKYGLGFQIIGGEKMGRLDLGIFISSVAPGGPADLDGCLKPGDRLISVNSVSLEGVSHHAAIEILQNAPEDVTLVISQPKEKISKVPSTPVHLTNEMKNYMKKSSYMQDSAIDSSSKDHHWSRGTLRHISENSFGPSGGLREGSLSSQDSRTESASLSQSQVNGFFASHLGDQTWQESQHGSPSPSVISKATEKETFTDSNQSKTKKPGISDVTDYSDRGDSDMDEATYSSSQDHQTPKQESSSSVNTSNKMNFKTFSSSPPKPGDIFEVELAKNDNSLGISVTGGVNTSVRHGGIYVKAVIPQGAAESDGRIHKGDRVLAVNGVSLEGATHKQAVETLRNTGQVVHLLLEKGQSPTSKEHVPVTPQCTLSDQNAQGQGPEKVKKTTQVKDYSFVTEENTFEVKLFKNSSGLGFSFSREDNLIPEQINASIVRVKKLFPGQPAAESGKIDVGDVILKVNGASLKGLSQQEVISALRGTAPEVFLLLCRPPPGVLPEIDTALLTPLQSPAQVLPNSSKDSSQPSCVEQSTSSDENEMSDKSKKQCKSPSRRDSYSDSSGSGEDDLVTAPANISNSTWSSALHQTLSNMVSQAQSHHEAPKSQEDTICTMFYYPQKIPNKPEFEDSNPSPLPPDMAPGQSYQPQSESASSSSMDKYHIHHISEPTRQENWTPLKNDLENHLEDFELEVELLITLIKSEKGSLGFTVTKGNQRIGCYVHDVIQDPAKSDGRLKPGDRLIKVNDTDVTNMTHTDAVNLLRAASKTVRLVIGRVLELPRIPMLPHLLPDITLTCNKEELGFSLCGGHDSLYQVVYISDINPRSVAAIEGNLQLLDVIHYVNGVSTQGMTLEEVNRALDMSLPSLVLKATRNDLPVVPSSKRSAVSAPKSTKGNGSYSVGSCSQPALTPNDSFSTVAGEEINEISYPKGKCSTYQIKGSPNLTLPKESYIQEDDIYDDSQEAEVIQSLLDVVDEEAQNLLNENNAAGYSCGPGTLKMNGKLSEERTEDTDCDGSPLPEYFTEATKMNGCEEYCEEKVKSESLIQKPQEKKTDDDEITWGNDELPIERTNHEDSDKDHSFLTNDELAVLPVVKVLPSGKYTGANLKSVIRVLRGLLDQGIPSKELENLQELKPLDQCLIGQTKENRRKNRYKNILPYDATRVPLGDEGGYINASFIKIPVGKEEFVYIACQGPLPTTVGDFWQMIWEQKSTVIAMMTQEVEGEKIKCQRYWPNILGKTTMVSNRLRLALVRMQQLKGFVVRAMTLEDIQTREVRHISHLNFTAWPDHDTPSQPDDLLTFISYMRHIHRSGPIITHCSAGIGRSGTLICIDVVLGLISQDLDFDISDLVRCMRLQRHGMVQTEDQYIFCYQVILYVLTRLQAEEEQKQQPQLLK
The test is described as follows: biochemical. Also on record: Fluorogenic phosphatase assay, DiFMUP hydrolysis by recombinant PTPs, initial velocity, Ex/Em 355/460 nm. The note with it: read-out: Inhibition by 20 µM polyphyllin D (%).

Another test deals with T3, PTPN12 (PTP-PEST) (Homo sapiens, UniProt Q05209).
T3 construct: 1-334
T3 sequence (Q05209 1-780): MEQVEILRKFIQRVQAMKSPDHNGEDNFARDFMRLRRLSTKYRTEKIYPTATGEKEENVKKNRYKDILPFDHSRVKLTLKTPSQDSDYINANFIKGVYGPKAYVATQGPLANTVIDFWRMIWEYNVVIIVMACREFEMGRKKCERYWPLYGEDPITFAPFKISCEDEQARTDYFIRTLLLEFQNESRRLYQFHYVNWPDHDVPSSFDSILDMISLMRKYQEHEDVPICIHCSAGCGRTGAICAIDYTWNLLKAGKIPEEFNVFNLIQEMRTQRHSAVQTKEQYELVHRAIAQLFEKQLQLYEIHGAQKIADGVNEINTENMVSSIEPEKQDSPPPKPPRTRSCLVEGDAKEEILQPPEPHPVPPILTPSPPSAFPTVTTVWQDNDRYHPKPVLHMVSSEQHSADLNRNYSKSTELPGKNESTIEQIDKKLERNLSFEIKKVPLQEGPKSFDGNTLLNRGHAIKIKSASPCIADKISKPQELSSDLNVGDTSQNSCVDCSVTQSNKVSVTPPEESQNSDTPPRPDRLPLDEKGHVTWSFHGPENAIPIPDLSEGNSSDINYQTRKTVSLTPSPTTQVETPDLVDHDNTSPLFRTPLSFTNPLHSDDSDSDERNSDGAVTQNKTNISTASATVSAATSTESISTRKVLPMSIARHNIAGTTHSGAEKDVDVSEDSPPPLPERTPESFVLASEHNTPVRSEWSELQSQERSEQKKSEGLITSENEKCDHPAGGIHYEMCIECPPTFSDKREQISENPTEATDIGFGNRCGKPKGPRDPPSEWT
The test is described as follows: biochemical. Also on record: Fluorogenic phosphatase assay, DiFMUP hydrolysis by recombinant PTPs, initial velocity, Ex/Em 355/460 nm. Conditions: read-out: Inhibition by 20 µM polyphyllin D (%).

Another test deals with T4, PTPN1 (PTP1B) (Homo sapiens, UniProt P18031).
T4 construct: 1-299
T4 sequence (P18031 1-435): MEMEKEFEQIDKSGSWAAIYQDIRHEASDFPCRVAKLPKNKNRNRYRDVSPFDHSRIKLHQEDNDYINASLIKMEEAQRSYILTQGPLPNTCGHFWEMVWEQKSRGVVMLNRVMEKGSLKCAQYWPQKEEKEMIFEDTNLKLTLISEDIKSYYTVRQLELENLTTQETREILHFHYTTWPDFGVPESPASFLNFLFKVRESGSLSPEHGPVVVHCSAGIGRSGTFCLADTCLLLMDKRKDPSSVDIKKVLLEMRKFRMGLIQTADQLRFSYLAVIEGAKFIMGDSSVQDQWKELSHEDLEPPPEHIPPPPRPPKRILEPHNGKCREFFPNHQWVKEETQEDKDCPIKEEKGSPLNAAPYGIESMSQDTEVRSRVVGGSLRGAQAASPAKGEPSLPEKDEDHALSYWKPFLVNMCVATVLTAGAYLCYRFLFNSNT
In words: biochemical. Also on record: Fluorogenic phosphatase assay, DiFMUP hydrolysis by recombinant PTPs, initial velocity, Ex/Em 355/460 nm. The note with it: read-out: Inhibition by 20 µM polyphyllin D (%).

Consider one compound from article PMC7915588, “Polyphyllin D Shows Anticancer Effect through a Selective Inhibition of Src Homology Region 2-Containing Protein Tyrosine Phosphatase-2 (SHP2)” (Molecules, 2021).

Broadly, the IC50 is the concentration that gives 50% inhibition. A lower IC50 goes with inhibition by little substance. As usually defined, the inhibition is how much of the control response was suppressed.

Turning to `C[C@@H]1CC[C@@]2(OC1)O[C@H]1C[C@H]3[C@@H]4CC=C5C[C@@H](O[C@@H]6O[C@H](CO)[C@@H](O[C@@H]7O[C@@H](CO)[C@H](O)[C@H]7O)[C@H](O)[C@H]6O[C@@H]6O[C@@H](C)[C@H](O)[C@@H](O)[C@H]6O)CC[C@]5(C)[C@H]4CC[C@]3(C)[C@H]1[C@@H]2C` [polyphyllin D], inhibition at SHP2 was half-maximal at 15.3 µM (IC50). Further, the inhibition at 20 µM at PTPN13 (PTP-BAS) is 0%; on PTPN12 (PTP-PEST), 29.9%; at PTPN1 (PTP1B), 0%.
